In PubChem BioAssay AID1963825 (Molecular Pharmacology Branch, DTP, NCI, 2024) one finds IC50 and viability, T/C data, which are given here for three molecules.

Each structure is given as a SMILES string. pIC50: −log10 of the molar value. “And” between values parts separate entries of the source, which are not always exact repeats. Identical values can stand only once.

By pIC50 is commonly meant the negative decadic logarithm of the IC50, by convention in mol/L. The viability, T/C is the result in the treated group divided by that in the control group, in per cent.

This assay can be described thus: Anticancer human tumor 997537-175-T-J1-PDC patient-derived colon adenocarcinoma cell line growth inhibition [POLQ]. The settings on record: 997537-175-T-J1-PDC complex spheroid viability, combination with POLQ inhibitors; for viability, T/C: stronger effect = lower value. In short, it runs like this:
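PDC + HUVEC + MSC complex spheroids; POLQ inhibitors ± partner drugs; top conc. at/near clinical Cmax, else 10 microM (SN-38 1 microM), half-log dilutions; 37 degrees C, 5% CO2.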
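Further: luminescence signal used as a surrogate for viable cells; spheroids exposed to drugs for seven days before readout.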

Regarding `C=CCn1c(=O)c2cnc(Nc3ccc(N4CCN(C)CC4)cc3)nc2n1-c1cccc(C(C)(C)O)n1` + Cc1cccc(N(C)C(=O)C2C(O)CCN2c2nc(C)cc(C(F)(F)F)c2C#N)c1, the pIC50 is, setting by setting: (curve of first compound, second compound 0.0316 µM) less than 6.00; (curve of first compound, second compound 0.1 µM) less than 6.00; (curve of first compound, second compound 0.316 µM) less than 6.00; (curve of first compound, second compound 1 µM) less than 6.00; (curve of first compound, second compound 3.16 µM) less than 6.00; (curve of first compound, second compound 10 µM) less than 6.00. In addition, the viability, T/C was 101% (second compound 0.0316 µM, first compound 0.00316 µM); 100% (second compound 0.0316 µM, first compound 0.01 µM); 93.9% (second compound 0.0316 µM, first compound 0.0316 µM); 90.9% (second compound 0.0316 µM, first compound 0.1 µM); 100% (second compound 0.0316 µM, first compound 0.316 µM); 76.2% (second compound 0.0316 µM, first compound 1 µM). Besides, the viability, T/C runs as follows: (second compound 0.1 µM, first compound 0.00316 µM) 99.4%; (second compound 0.1 µM, first compound 0.01 µM) 109%; (second compound 0.1 µM, first compound 0.0316 µM) 95%; (second compound 0.1 µM, first compound 0.1 µM) 88.8%; (second compound 0.1 µM, first compound 0.316 µM) 81.2%; (second compound 0.1 µM, first compound 1 µM) 64.2%. The viability, T/C runs as follows: (second compound 0.316 µM, first compound 0.00316 µM) 89.4%; (second compound 0.316 µM, first compound 0.01 µM) 113%; (second compound 0.316 µM, first compound 0.0316 µM) 110%; (second compound 0.316 µM, first compound 0.1 µM) 91.9%; (second compound 0.316 µM, first compound 0.316 µM) 83.2%; (second compound 0.316 µM, first compound 1 µM) 75%. For the same molecule, the viability, T/C runs as follows: (second compound 1 µM, first compound 0.00316 µM) 118%; (second compound 1 µM, first compound 0.01 µM) 109%; (second compound 1 µM, first compound 0.0316 µM) 106%; (second compound 1 µM, first compound 0.1 µM) 99.8%; (second compound 1 µM, first compound 0.316 µM) 113%; (second compound 1 µM, first compound 1 µM) 84.9%. Further, the viability, T/C is, setting by setting: (second compound 3.16 µM, first compound 0.00316 µM) 93.2%; (second compound 3.16 µM, first compound 0.01 µM) 95.6%; (second compound 3.16 µM, first compound 0.0316 µM) 101%; (second compound 3.16 µM, first compound 0.1 µM) 96.1%; (second compound 3.16 µM, first compound 0.316 µM) 85.4%; (second compound 3.16 µM, first compound 1 µM) 59.6%. In addition, the viability, T/C was 111% (second compound 10 µM, first compound 0.00316 µM); 99.5% (second compound 10 µM, first compound 0.01 µM); 95.3% (second compound 10 µM, first compound 0.0316 µM); 93.6% (second compound 10 µM, first compound 0.1 µM); 78.9% (second compound 10 µM, first compound 0.316 µM); 94.8% (second compound 10 µM, first compound 1 µM).
Regarding `CCCS(=O)(=O)Nc1ccc(F)c(C(=O)c2c[nH]c3ncc(-c4ccc(Cl)cc4)cc23)c1F`, the viability, T/C reads like this: (compound 0.0316 µM) 97.4% and 90.7% and 82.4%; (compound 0.1 µM) 82.1% and 86.5% and 97.7%; (compound 0.316 µM) 88.1% and 82.6% and 89.7%; (compound 1 µM) 86.5% and 84.5% and 82.5%; (compound 3.16 µM) 65.1% and 72.9% and 76%; (compound 10 µM) 26.5% and 42% and 22.9%. Moreover, the pIC50 (curve of compound) is 5.30 and 5.12 and 5.26.
As to `C=CCn1c(=O)c2cnc(Nc3ccc(N4CCN(C)CC4)cc3)nc2n1-c1cccc(C(C)(C)O)n1`, the viability, T/C was 98.4% and 90.3% and 83.5% (compound 0.00316 µM); 96.6% and 88.9% and 102% (compound 0.01 µM); 73.2% and 89.1% and 83.6% (compound 0.0316 µM); 94% and 101% and 86.6% (compound 0.1 µM); 95.9% and 94.9% and 76.8% (compound 0.316 µM); 74.5% and 63.4% and 69.5% (compound 1 µM). Moreover, where the note is “curve of compound”, the pIC50 is less than 6.00.
